This experiment addresses human Galectin-3 (Gal-3); His-Galectin-3 (Homo sapiens, UniProt P17931). Kind of experiment: competitive enzyme-linked lectin assay. Type of experiment: binding. The note with it: His-Galectin-3 vs S0G2-BSA coated plate, PBS, r.t.

pIC50: −log10 of the molar value.

human Galectin-3 (Gal-3); His-Galectin-3, sequence (P17931 2-250): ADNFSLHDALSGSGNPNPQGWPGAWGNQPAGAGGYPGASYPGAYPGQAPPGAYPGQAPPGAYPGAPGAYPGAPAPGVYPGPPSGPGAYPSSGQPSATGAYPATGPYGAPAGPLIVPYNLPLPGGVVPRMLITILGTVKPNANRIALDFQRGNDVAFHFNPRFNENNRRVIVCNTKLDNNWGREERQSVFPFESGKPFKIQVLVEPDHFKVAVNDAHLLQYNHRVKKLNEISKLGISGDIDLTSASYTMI

Take `CC(=O)N[C@@H]1[C@@H](O)[C@H](O[C@@H]2O[C@H](CO)[C@@H](O[C@@H]3O[C@H](CO[C@H]4O[C@H](CO)[C@@H](O)[C@H](O)[C@@H]4O[C@@H]4O[C@H](CO)[C@@H](O[C@@H]5O[C@H](CO)[C@H](O)[C@H](O)[C@H]5O)[C@H](O)[C@H]4NC(C)=O)[C@@H](O)[C@H](O[C@H]4O[C@H](CO)[C@@H](O)[C@H](O)[C@@H]4O[C@@H]4O[C@H](CO)[C@@H](O[C@@H]5O[C@H](CO)[C@H](O)[C@H](O)[C@H]5O)[C@H](O)[C@H]4NC(C)=O)[C@@H]3O)[C@H](O)[C@H]2NC(C)=O)[C@@H](CO)O[C@H]1NC(=O)C[C@H](N)C(=O)O` [compound 1, S0G2-Asn]: the pIC50 (usually the negative decadic logarithm of the IC50, by convention in mol/L) was 5.11.

Values taken from publication PMC10349922 (Bioconjugate chemistry, 2023).
